Where “and” joins values, the source holds several entries; their conditions need not be identical. Identical values can stand only once. Inconclusive results and toxic doses are left out.
Test system: P388 leukemia ip, CD2F1 mice, survival T/C
Assay: NCI In Vivo Anticancer Drug Screen. Data for tumor model P388 Leukemia (intraperitoneal) in CD2F1 (CDF1) mice
Details: endpoint: median survival time, higher = longer survival
Summary of the method: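 Mice carrying the transplanted tumor received test compound or vehicle. Survival was recorded in each group, and the value is the treated-group measurement divided by that of the vehicle-treated control group.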

[1] = dose: 12.5 mg/kg/injection, schedule: Q01DX005 (ip), vehicle: saline with Tween-80
[2] = dose: 50.0 mg/kg/injection, schedule: Q01DX005 (ip), vehicle: saline with Tween-80
[3] = dose: 50.0 mg/kg/injection, schedule: Q01DX009 (ip), vehicle: saline with Tween-80
[4] = dose: 100.0 mg/kg/injection, schedule: Q01DX009 (ip), vehicle: saline with Tween-80
[5] = dose: 200.0 mg/kg/injection, schedule: Q01DX009 (ip), vehicle: saline with Tween-80
[6] = dose: 100.0 mg/kg/injection, schedule: Q01DX005 (ip), vehicle: saline with Tween-80
[7] = dose: 200.0 mg/kg/injection, schedule: Q01DX005 (ip), vehicle: saline with Tween-80
[8] = dose: 50.0 mg/kg/injection, schedule: Q01DX009 (ip), vehicle: saline
[9] = dose: 100.0 mg/kg/injection, schedule: Q01DX009 (ip), vehicle: saline
[10] = dose: 200.0 mg/kg/injection, schedule: Q01DX009 (ip), vehicle: saline
[11] = dose: 50.0 mg/kg/injection, schedule: Q01DX005 (ip), vehicle: Klucel (hydroxypropylcellulose) (HPC)
[12] = dose: 100.0 mg/kg/injection, schedule: Q01DX005 (ip), vehicle: Klucel (hydroxypropylcellulose) (HPC)
[13] = dose: 200.0 mg/kg/injection, schedule: Q01DX005 (ip), vehicle: Klucel (hydroxypropylcellulose) (HPC)
[14] = dose: 60.0 mg/kg/injection, schedule: Q01DX005 (ip), vehicle: saline with Tween-80
[15] = dose: 120.0 mg/kg/injection, schedule: Q01DX005 (ip), vehicle: saline with Tween-80
[16] = dose: 240.0 mg/kg/injection, schedule: Q01DX005 (ip), vehicle: saline with Tween-80

CCC(C)N(CCNc1cc(OC)cc2cccnc12)CC(C)C (stereo unspecified)
T/C (dose: 12.5 mg/kg/injection, schedule: Q01DX005 (ip), vehicle: saline): 104 % of control | T/C (dose: 25.0 mg/kg/injection, schedule: Q01DX005 (ip), vehicle: saline): 104 % of control | T/C (dose: 50.0 mg/kg/injection, schedule: Q01DX005 (ip), vehicle: saline): 101 % of control and 95 % of control

CNC(=O)OCC1=C(Sc2ccccc2)C(=O)C(OC)=C(OC)C1=O
T/C [1]: 106 % of control | T/C (dose: 25.0 mg/kg/injection, schedule: Q01DX005 (ip), vehicle: saline with Tween-80): 108 % of control | T/C [2]: 103 % of control and 110 % of control

Cc1cc(Cl)ccc1N=Cc1ccc(OCc2ccccc2)cc1
T/C [3]: 92 % of control | T/C [4]: 90 % of control | T/C [5]: 88 % of control

Cc1cc(C(=O)Nc2ccc(NC3=NCCN3)cc2)cc(C(=O)Nc2ccc(NC3=NCCN3)cc2)c1
T/C (dose: 3.12 mg/kg/injection, schedule: Q01DX005 (ip), vehicle: saline with Tween-80): 100 % of control | T/C (dose: 6.25 mg/kg/injection, schedule: Q01DX005 (ip), vehicle: saline with Tween-80): 107 % of control | T/C [1]: 106 % of control

CCCCNC(=O)[C@@H]1C[C@H](OP(c2ccccc2)c2ccccc2)CN1P(c1ccccc1)c1ccccc1
T/C [2]: 100 % of control | T/C [6]: 100 % of control | T/C [7]: 99 % of control

CN1CCC2(CC1)N=C1CCN(C)CC1S2 (stereo unspecified)
T/C (dose: 100.0 mg/kg/injection, schedule: Q01DX001 (ip), vehicle: saline with Tween-80): 102 % of control | T/C (dose: 200.0 mg/kg/injection, schedule: Q01DX001 (ip), vehicle: saline with Tween-80): 109 % of control

C[N+](C)(CC(=O)Nc1cccc(C(F)(F)F)c1)CC(=O)Nc1cccc(C(F)(F)F)c1
T/C (dose: 3.13 mg/kg/injection, schedule: Q01DX009 (ip), vehicle: saline sonified): 100 % of control | T/C (dose: 6.25 mg/kg/injection, schedule: Q01DX009 (ip), vehicle: saline sonified): 104 % of control | T/C (dose: 12.5 mg/kg/injection, schedule: Q01DX009 (ip), vehicle: saline sonified): 109 % of control

Cc1onc(-c2ccccc2)c1C(=O)N/N=C/c1cc(Cl)cc(Cl)c1O
T/C [8]: 103 % of control | T/C [9]: 91 % of control | T/C [10]: 99 % of control

Cc1cccc(N2CCN(C(=O)/C(=C/c3ccccc3)NC(=O)c3ccccc3)CC2)c1
T/C [2]: 93 % of control | T/C [6]: 89 % of control

N#CC12OC1(Cl)CCCC2(Cl)Cl (stereo unspecified)
T/C [3]: 95 % of control | T/C [4]: 95 % of control | T/C [5]: 86 % of control

C[C@@H]1C(=O)C[C@H]2C(C)(C)CCC[C@]2(C)[C@@]1(O)CCc1ccoc1
T/C (dose: 25.0 mg/kg/injection, schedule: Q01DX005 (ip), vehicle: Klucel (hydroxypropylcellulose) (HPC)): 100 % of control | T/C [11]: 100 % of control | T/C [12]: 100 % of control | T/C [13]: 96 % of control

C/C(=N\NC(N)=Nc1ccc(Cl)cc1)c1ccc2c(c1)Cc1cc(/C(C)=N/NC(N)=Nc3ccc(Cl)cc3)ccc1-2
T/C (dose: 25.0 mg/kg/injection, schedule: Q04DX002 (ip), vehicle: saline with Tween-80): 87 % of control | T/C (dose: 50.0 mg/kg/injection, schedule: Q04DX002 (ip), vehicle: saline with Tween-80): 90 % of control | T/C (dose: 100.0 mg/kg/injection, schedule: Q04DX002 (ip), vehicle: saline with Tween-80): 97 % of control | T/C (dose: 200.0 mg/kg/injection, schedule: Q04DX002 (ip), vehicle: saline with Tween-80): 101 % of control | T/C (dose: 400.0 mg/kg/injection, schedule: Q04DX002 (ip), vehicle: saline with Tween-80): 100 % of control

CN(C)CN1C(=O)S/C(=C2\C(=O)N(C)c3ccc(Br)cc32)C1=O
T/C (dose: 100.0 mg/kg/injection, schedule: Q01DX001 (ip), vehicle: Klucel (hydroxypropylcellulose) (HPC)): 101 % of control | T/C (dose: 200.0 mg/kg/injection, schedule: Q01DX001 (ip), vehicle: Klucel (hydroxypropylcellulose) (HPC)): 95 % of control | T/C (dose: 400.0 mg/kg/injection, schedule: Q01DX001 (ip), vehicle: Klucel (hydroxypropylcellulose) (HPC)): 97 % of control

COC(=O)C(O)(/C(=N\O)c1ccccc1)c1ccccc1 (stereo unspecified)
T/C [14]: 97 % of control | T/C [15]: 90 % of control

CCOC([O-])=N/C(C)=N/[n+]1ccccc1
T/C [8]: 104 % of control | T/C [9]: 104 % of control | T/C [10]: 98 % of control

Nc1ccnc(Sc2ncccc2[N+](=O)[O-])n1
T/C [11]: 100 % of control | T/C [12]: 100 % of control | T/C [13]: 93 % of control

NOCc1ccc(CON)cc1
T/C [3]: 95 % of control | T/C [4]: 95 % of control | T/C [5]: 91 % of control

O/N=C/C(=Nc1ccc2ccccc2c1)NO
T/C (dose: 60.0 mg/kg/injection, schedule: Q01DX005 (ip), vehicle: Klucel (hydroxypropylcellulose) (HPC)): 102 % of control | T/C (dose: 120.0 mg/kg/injection, schedule: Q01DX005 (ip), vehicle: Klucel (hydroxypropylcellulose) (HPC)): 98 % of control | T/C (dose: 240.0 mg/kg/injection, schedule: Q01DX005 (ip), vehicle: Klucel (hydroxypropylcellulose) (HPC)): 98 % of control

NC(=O)c1coc2c1C(=O)c1ccc3ccccc3c1CC2
T/C [14]: 102 % of control | T/C [15]: 102 % of control | T/C [16]: 108 % of control

CS(=O)(=O)N1CC=CCS1=O (stereo unspecified)
T/C (dose: 6.25 mg/kg/injection, schedule: Q01DX009 (ip), vehicle: Klucel (hydroxypropylcellulose) (HPC)): 103 % of control | T/C (dose: 12.5 mg/kg/injection, schedule: Q01DX009 (ip), vehicle: Klucel (hydroxypropylcellulose) (HPC)): 108 % of control | T/C (dose: 25.0 mg/kg/injection, schedule: Q01DX009 (ip), vehicle: Klucel (hydroxypropylcellulose) (HPC)): 108 % of control

CCOC(=O)C(C(C)O)C1CC=CC1 (stereo unspecified)
T/C [2]: 108 % of control | T/C [6]: 100 % of control | T/C [7]: 104 % of control

CC1(C)CC(OS(C)(=O)=O)CC(C)(C)N1O
T/C (dose: 50.0 mg/kg/injection, schedule: Q01DX009 (ip), vehicle: Klucel (hydroxypropylcellulose) (HPC)): 100 % of control | T/C (dose: 100.0 mg/kg/injection, schedule: Q01DX009 (ip), vehicle: Klucel (hydroxypropylcellulose) (HPC)): 99 % of control

COc1ccc2c(c1OC)C(C(Cl)(Cl)Cl)N1CCc3cc4c(cc3C1=C2)OCO4 (stereo unspecified)
T/C [3]: 93 % of control | T/C [4]: 90 % of control | T/C [5]: 92 % of control

CSc1cccc([N+](=O)[O-])c1
T/C [9]: 95 % of control | T/C [10]: 87 % of control

CCCCn1cnc(C(=O)OC)c1O (tested in a mixture with another compound)
T/C (dose: 100.0 mg/kg/injection, schedule: Q04DX002 (ip), vehicle: water): 103 % of control | T/C (dose: 200.0 mg/kg/injection, schedule: Q04DX002 (ip), vehicle: water): 101 % of control | T/C (dose: 400.0 mg/kg/injection, schedule: Q04DX002 (ip), vehicle: water): 108 % of control

C1=C(CC2=C[P+](c3ccccc3)(c3ccccc3)C=C(c3ccccc3)O2)OC(c2ccccc2)=C[P+]1(c1ccccc1)c1ccccc1
T/C (dose: 0.75 mg/kg/injection, schedule: Q01DX005 (ip), vehicle: saline with Tween-80): 115 % of control | T/C (dose: 3.0 mg/kg/injection, schedule: Q01DX005 (ip), vehicle: saline): 124 % of control

CC1(C)C(=O)c2ccccc2-c2ccccc21
T/C [2]: 101 % of control | T/C [6]: 104 % of control | T/C [7]: 103 % of control

Brc1ccc(Nc2ccccn2)cc1
T/C (dose: 12.5 mg/kg/injection, schedule: Q01DX009 (ip), vehicle: other): 108 % of control | T/C (dose: 25.0 mg/kg/injection, schedule: Q01DX009 (ip), vehicle: other): 97 % of control | T/C (dose: 50.0 mg/kg/injection, schedule: Q01DX009 (ip), vehicle: other): 105 % of control | T/C (dose: 100.0 mg/kg/injection, schedule: Q01DX009 (ip), vehicle: other): 105 % of control | T/C (dose: 200.0 mg/kg/injection, schedule: Q01DX009 (ip), vehicle: other): 106 % of control

NC(=O)C1=CC2C3C=CC2(O)C(=O)OC3O1 (stereo unspecified)
T/C (dose: 7.5 mg/kg/injection, schedule: Q01DX005 (ip), vehicle: Klucel (hydroxypropylcellulose) (HPC)): 114 % of control and 119 % of control | T/C (dose: 30.0 mg/kg/injection, schedule: Q01DX005 (ip), vehicle: Klucel (hydroxypropylcellulose) (HPC)): 158 % of control

Clc1ccc(-c2csc3sc4ccccc4[n+]23)cc1
T/C [2]: 111 % of control | T/C [6]: 118 % of control | T/C [7]: 113 % of control

Cc1ccc(S(=O)(=O)OCC2COC(C(C)C)OC2)cc1 (stereo unspecified)
T/C [14]: 99 % of control | T/C [15]: 90 % of control | T/C [16]: 90 % of control
